Marks after values point to notes of the source that are not given here.
Assays:
[1] = Example 2: broiler performance (body weight gain, feed intake, FCR), PQQ in diet, 0 to 42 days; assay type: in vivo, Broiler Chicken (Cobb 500)
Text: Study Animals: • Animal: Broiler Chicken • Breed/Strain: Cobb 500 • Description: Day-of-hatch male chicks, sexed at hatchery • Sex: Male Total number of treatments: 4 Total number of replicates per treatment: 12 Total number of chicks per replicate: […] Initial age: day-of-hatch: 0 days-of-age Final age: 6 weeks: 42 days-of-age. Feed will be changed based on the days of each phase. • Starter feed will be weighed out and fed from day 0 to 7. • Grower feed will be weighed, issued and fed from day 8 until 21. • Finisher feed will be weighed, issued and fed from day 22 until 35. • Withdraw feed will be weighed, issued and fed from day 36 until 42. Performance: Feed consumption and pen weights are determined on days 0, 21, 35 and 42 to calculate average body weight (BW), body weight gain (BWG) and feed conversion ratio (FCR). Final bird weights: At the end of the grow-out period (Day 42), all birds are weighed, as well as any and all remaining feed. Randomized Complete Block Design with 4 treatments×12 replicates/treatment (40 birds/pen), randomized within blocks across the barn to minimize differences in environmental condition. The pen is the experimental unit. Dietary Treatments • Control (NC, negative control without PQQ) • 0.2 ppm PQQ • 0.5 ppm PQQ • 1 ppm PQQ The results are presented in tables 5 to 13 below for broilers fed diets from 0 to 42 days (d) of age. The values given are the mean and the P value.

wooden breast myopathies = experiment: Example 2: wooden breast assessment by expert panel at 42 d; assay type: in vivo, Broiler Chicken (Cobb 500); conditions: for wooden breast means per treatment (WB): score scale WB0-WB4
Procedure: Study Animals: • Animal: Broiler Chicken • Breed/Strain: Cobb 500 • Description: Day-of-hatch male chicks, sexed at hatchery • Sex: Male
Processing: On day […] (12) birds are selected from each pen for processing (at 12 reps/trt: 576 birds in total; 144 birds/trt)
Wooden breast assessment was determined by an expert panel according to 5 levels: WB0, WB1, WB2, WB3, WB4 from no WB to severe WB.
Dietary Treatments • Control (NC, negative control without PQQ) • 0.2 ppm PQQ • 0.5 ppm PQQ • 1 ppm PQQ
Wooden Breast Scores were: WB 0—normal breast; WB 1—mild hardening in the upper; WB 2—moderate hardening in the upper and/or lower part of the fillet; WB 3—severe hardening; WB 4—severe hardening with hemorrhagic lesions, increased volume, and presence of yellow fluid.
Higher is the score per WB 3 and 4 categories, greater is the default. Conversely, for categories WB0 to WB2, higher is the score, better is the quality.
Wooden breast scores were: WB0—normal breast; WB1—mild hardening in the upper; WB 2—moderate hardening in the upper and/or lower part of the fillet; WB 3—severe hardening; WB 4—severe hardening with hemorrhagic lesions, increased volume, and presence of yellow fluid.

O=C(O)c1cc(C(=O)O)c2c(n1)C(=O)C(=O)c1cc(C(=O)O)[nH]c1-2 [PQQ, pyrroloquinoline quinone]
Cumulative feed intake of broilers ([1]; 0.2 ppm PQQ (T2), 1 t1o 42 d): 5365 g | Cumulative feed intake of broilers ([1]; 0.2 ppm PQQ (T2), 1 to1 21 d): 835 g | feed intake of broilers ([1]; 0.2 ppm PQQ (T2), 1 to 7 d): 158 g | cumulative body weight gain of broilers ([1]; 0.2 ppm PQQ (T2), 1 to 21 d): 624 g | cumulative feed conversion ratio of broilers ([1]; 0.2 ppm PQQ (T2), 1 to 21 d): 1.355 | cumulative body weight gain of broilers ([1]; 0.2 ppm PQQ (T2), 1 to 35 d): 2125 g | cumulative feed conversion ratio of broilers ([1]; 0.2 ppm PQQ (T2), 1 to 35 d): 1.494 | cumulative body weight gain of broilers ([1]; 0.2 ppm PQQ (T2), 1 to 42 d): 3204 g | cumulative feed conversion ratio of broilers ([1]; 0.2 ppm PQQ (T2), 1 to 42 d): 1.674 | feed intake of broilers ([1]; 0.2 ppm PQQ (T2), 8 to 21 d): 677 g | Cumulative feed intake of broilers ([1]; 0.2 ppm PQQ (T2), 11 to 35 d): 3173 g | feed intake of broilers ([1]; 0.2 ppm PQQ (T2), 22 to 35 d): 2346 g | feed intake of broilers ([1]; 0.2 ppm PQQ (T2), 36 to 42 d): 2218 g | Cumulative feed intake of broilers ([1]; 0.5 ppm PQQ (T3), 1 t1o 42 d): 5316 g | Cumulative feed intake of broilers ([1]; 0.5 ppm PQQ (T3), 1 to1 21 d): 853 g | feed intake of broilers ([1]; 0.5 ppm PQQ (T3), 1 to 7 d): 156 g | cumulative body weight gain of broilers ([1]; 0.5 ppm PQQ (T3), 1 to 21 d): 608 g | cumulative feed conversion ratio of broilers ([1]; 0.5 ppm PQQ (T3), 1 to 21 d): 1.402 | cumulative body weight gain of broilers ([1]; 0.5 ppm PQQ (T3), 1 to 35 d): 2123 g | cumulative feed conversion ratio of broilers ([1]; 0.5 ppm PQQ (T3), 1 to 35 d): 1.526 | cumulative body weight gain of broilers ([1]; 0.5 ppm PQQ (T3), 1 to 42 d): 3166 g | cumulative feed conversion ratio of broilers ([1]; 0.5 ppm PQQ (T3), 1 to 42 d): 1.675 | feed intake of broilers ([1]; 0.5 ppm PQQ (T3), 8 to 21 d): 699 g | Cumulative feed intake of broilers ([1]; 0.5 ppm PQQ (T3), 11 to 35 d): 3236 g | feed intake of broilers ([1]; 0.5 ppm PQQ (T3), 22 to 35 d): 2390 g | feed intake of broilers ([1]; 0.5 ppm PQQ (T3), 36 to 42 d): 2105 g | Cumulative feed intake of broilers ([1]; 1.0 ppm PQQ (T4), 1 t1o 42 d): 5449 g | Cumulative feed intake of broilers ([1]; 1.0 ppm PQQ (T4), 1 to1 21 d): 905 g | feed intake of broilers ([1]; 1.0 ppm PQQ (T4), 1 to 7 d): 159 g | cumulative body weight gain of broilers ([1]; 1.0 ppm PQQ (T4), 1 to 21 d): 630 g | cumulative feed conversion ratio of broilers ([1]; 1.0 ppm PQQ (T4), 1 to 21 d): 1.429 | cumulative body weight gain of broilers ([1]; 1.0 ppm PQQ (T4), 1 to 35 d): 2178 g | cumulative feed conversion ratio of broilers ([1]; 1.0 ppm PQQ (T4), 1 to 35 d): 1.540 | cumulative body weight gain of broilers ([1]; 1.0 ppm PQQ (T4), 1 to 42 d): 3188 g | cumulative feed conversion ratio of broilers ([1]; 1.0 ppm PQQ (T4), 1 to 42 d): 1.708 | feed intake of broilers ([1]; 1.0 ppm PQQ (T4), 8 to 21 d): 747 g | Cumulative feed intake of broilers ([1]; 1.0 ppm PQQ (T4), 11 to 35 d): 3357 g | feed intake of broilers ([1]; 1.0 ppm PQQ (T4), 22 to 35 d): 2459 g | feed intake of broilers ([1]; 1.0 ppm PQQ (T4), 36 to 42 d): 2113 g | influence on the body weight ([1]; each concentration (0.2, 0.5, 1.0 ppm)): positive influence | wooden breast myopathies occurrence, WB0 (wooden breast myopathies; 0.2 ppm PQQ (T2)): 0.83% | wooden breast myopathies occurrence, WB1 (wooden breast myopathies; 0.2 ppm PQQ (T2)): 2.78% | wooden breast myopathies occurrence, WB2 (wooden breast myopathies; 0.2 ppm PQQ (T2)): 20.00^a % | wooden breast myopathies occurrence, WB3 (wooden breast myopathies; 0.2 ppm PQQ (T2)): 49.16^a % | wooden breast myopathies occurrence, WB4 (wooden breast myopathies; 0.2 ppm PQQ (T2)): 27.22% | wooden breast myopathies scores, WB0 (wooden breast myopathies; 0.2 ppm PQQ (T2)): 0.08 | wooden breast myopathies scores, WB1 (wooden breast myopathies; 0.2 ppm PQQ (T2)): 0.17 | wooden breast myopathies scores, WB2 (wooden breast myopathies; 0.2 ppm PQQ (T2)): 1.17^b | wooden breast myopathies scores, WB3 (wooden breast myopathies; 0.2 ppm PQQ (T2)): 2.92 | wooden breast myopathies scores, WB4 (wooden breast myopathies; 0.2 ppm PQQ (T2)): 1.67 | wooden breast means per treatment (WB) (wooden breast myopathies; 0.2 ppm PQQ (T2)): 2.92^a | wooden breast myopathies occurrence, WB0 (wooden breast myopathies; 0.5 ppm PQQ (T3)): 0.00% | wooden breast myopathies occurrence, WB1 (wooden breast myopathies; 0.5 ppm PQQ (T3)): 15.29% | wooden breast myopathies occurrence, WB2 (wooden breast myopathies; 0.5 ppm PQQ (T3)): 41.67^ab % | wooden breast myopathies occurrence, WB3 (wooden breast myopathies; 0.5 ppm PQQ (T3)): 30.56^ab % | wooden breast myopathies occurrence, WB4 (wooden breast myopathies; 0.5 ppm PQQ (T3)): 12.50% | wooden breast myopathies scores, WB0 (wooden breast myopathies; 0.5 ppm PQQ (T3)): 0.00 | wooden breast myopathies scores, WB1 (wooden breast myopathies; 0.5 ppm PQQ (T3)): 0.92 | wooden breast myopathies scores, WB2 (wooden breast myopathies; 0.5 ppm PQQ (T3)): 2.50^ab | wooden breast myopathies scores, WB3 (wooden breast myopathies; 0.5 ppm PQQ (T3)): 1.83 | wooden breast myopathies scores, WB4 (wooden breast myopathies; 0.5 ppm PQQ (T3)): 0.75 | wooden breast means per treatment (WB) (wooden breast myopathies; 0.5 ppm PQQ (T3)): 2.36^b | change in proportion of WB2 breast fillets with supplementation (wooden breast myopathies; 1 ppm PQQ): +50% | change in proportion of WB4 breast fillets with supplementation (wooden breast myopathies; 1 ppm PQQ): −60% | wooden breast myopathies occurrence, WB0 (wooden breast myopathies; 1.0 ppm PQQ (T4)): 0.00% | wooden breast myopathies occurrence, WB1 (wooden breast myopathies; 1.0 ppm PQQ (T4)): 18.05% | wooden breast myopathies occurrence, WB2 (wooden breast myopathies; 1.0 ppm PQQ (T4)): 46.94^a % | wooden breast myopathies occurrence, WB3 (wooden breast myopathies; 1.0 ppm PQQ (T4)): 25.00^b % | wooden breast myopathies occurrence, WB4 (wooden breast myopathies; 1.0 ppm PQQ (T4)): 10.00% | wooden breast myopathies scores, WB0 (wooden breast myopathies; 1.0 ppm PQQ (T4)): 0.00 | wooden breast myopathies scores, WB1 (wooden breast myopathies; 1.0 ppm PQQ (T4)): 1.08 | wooden breast myopathies scores, WB2 (wooden breast myopathies; 1.0 ppm PQQ (T4)): 2.75^a | wooden breast myopathies scores, WB3 (wooden breast myopathies; 1.0 ppm PQQ (T4)): 1.50 | wooden breast myopathies scores, WB4 (wooden breast myopathies; 1.0 ppm PQQ (T4)): 0.58 | wooden breast means per treatment (WB) (wooden breast myopathies; 1.0 ppm PQQ (T4)): 2.26^b | proportions of bad quality fillets (WB3 and WB4) (wooden breast myopathies; supplementation with PQQ): lower proportions | proportions of good quality breast fillets (WB0 to WB2) (wooden breast myopathies; supplementation with PQQ): higher proportions
